Legend:
[1] = test system: MSSP (Methicillin-Susceptible Staphylococcus pseudintermedius); assay: MIC against selected strains of MSSP; assay type: cell-based; set-up: key to MIC MSSP 84658 / MIC MSSP 86000 / MIC MSSP 71990 / MIC MSSP 72036 / MIC MSSP 78032: MIC in μM; key to MIC MSSP 86001 / MIC MSSP 72191 / MIC MSSP 76986 / MIC MSSP 77378: MIC in μM (first well with no visible growth); MIC MSSP 49051 / MIC MSSP 81923 / MIC MSSP 84250 / Effect on MSSP 86000 / Effect on MSSP 72036 / Effect on MSSP 78032: unit not given beside the values; settings: for MIC MSSP 49051: strain 49051, Table 3; for MIC MSSP 71990: strain 71990, Table 3; for MIC MSSP 72036: strain 72036, Table 3; for MIC MSSP 72191: strain 72191, Table 3; for MIC MSSP 76986: strain 76986, Table 3; for MIC MSSP 77378: strain 77378, Table 3; for MIC MSSP 78032: strain 78032, Table 3; for MIC MSSP 81923: strain 81923, Table 3; for MIC MSSP 84250: strain 84250, Table 3; for MIC MSSP 84658: strain 84658, Table 3; for MIC MSSP 86000: strain 86000, Table 3; for MIC MSSP 86001: strain 86001, Table 3
Description: (§1) Peptides according to SEQ ID NOs as listed in Table 1 were prepared by a commercial manufacturer (CS Bio, Menlo Park, Calif.) using solid phase synthesis. Antimicrobial activity was assessed by determining the Minimal Inhibitory Concentration (MIC) against S. aureus and E. coli. Briefly, Microbroth MICs were performed using CLSI methodology (VET01-S2). For S. aureus and E. coli ATCC strains, TSA with 5% lysed horse blood agar was used for overnight culturing at 37° C. ambient air. A 0.5 mM stock for each peptide was made with cell culture water, 0.01% acetic acid and serially diluted and spotted (10 μL) in a 96-well plate for in assay dose titration concentration of 50 μM to 0.05 μM. 0.5 McFarland Standard of each strain was diluted 1:250 in Mueller-Hinton Broth (MHB). 90 μL of culture suspension was then added upon drug in the 96-well plate for overnight incubation for 18-20 hours. The MIC was determined visually at the first well of no visible growth at the corresponding concentration.
(§2) Antimicrobial activity of the peptides listed in Table 2 against different strains of MSSP (Methicillin-Susceptible Staphylococcus pseudintermedius) and MRSP (Methicillin-Resistant Staphylococcus pseudintermedius) was further assessed. The results are in Tables 3 and 4, respectively.

[2] = test system: MRSP (Methicillin-Resistant Staphylococcus pseudintermedius); assay: MIC against selected strains of MRSP; assay type: cell-based; set-up: key to MIC MRSP 88493 / MIC MRSP 72035 / MIC MRSP 81926: MIC in μM; key to MIC MRSP 71994 / MIC MRSP 79882 / MIC MRSP 80729 / MIC MRSP 86002: MIC in μM (first well with no visible growth); key to MIC MRSP 72192 / MIC MRSP 76923 / MR 71994 / Mr 88493 / MR 72035 / MR 72192 / MR 76923 / MR 79882 / MR 80279 / MR 81926 / MR 86002 / MR 87665: MIC in μM (visual, first well with no growth); MIC MRSP 87655: unit not given beside the values; settings: for MIC MRSP 71994: strain 71994, Table 4; for MIC MRSP 72035: strain 72035, Table 4; for MIC MRSP 72192: strain 72192, Table 4; for MIC MRSP 76923: strain 76923, Table 4; for MIC MRSP 79882: strain 79882, Table 4; for MIC MRSP 80729: strain 80729, Table 4; for MIC MRSP 81926: strain 81926, Table 4; for MIC MRSP 86002: strain 86002, Table 4; for MIC MRSP 87655: strain 87655, Table 4; for MIC MRSP 88493: strain 88493, Table 4
Description: as §1, §2

cRBC = assay type: cell-based, canine
Description: SEQ ID NO: 1 was selected for further research. Toxicity of SEQ ID NO: 1 to eukaryotic blood cells was compared to that of tachyplesin (SEQ ID NO: 13). A standard, well referenced red blood cell hemolysis assay was employed against multiple species to test the lysis potential of the peptides. Red blood cells (RBCs) were prepared and isolated by several centrifuge and wash steps to remove the plasma fraction. A dose titration (50 μM to 0.05 μM) of test peptides and control peptide melittin were spotted from 50 mM stocks in a 384 well plate. Prepared RBCs were incubated with peptide for one hour at 37° C. Percent hemolysis was measured by optical density at 405 nm and utilizing 1% TritonX100 as hundred percent effect (HPE) and phosphate buffer alone as zero percent effect (ZPE).

[3] = test system: Canine-derived epithelial keratinocyte (CPEK) cells; assay type: cell-based
Description: Safety of the peptides listed in table 2 was determining by measuring cell viability. Canine-derived epithelial keratinocyte (CPEK) cells were propagated to determine cell viability in the presence of peptides. Cells were grown from a frozen stock in CnT-09-5 (with supplements) pre-warmed media in a T75 flask and incubated overnight at 37° C., 5% CO2. Cells were washed with phosphate buffer and replenished with pre-warmed CnT-05-9 media and repeated for several days until cells reached a density of 6.6×10^4 cells/mL. Cells were then transferred to a 384 well plate, allowed to settle and dosed with peptides and melittin control peptide (50 μM to 0.05 μM) and incubated overnight at 37° C., 5% CO2. 0.1% TritonX100 as (HPE) and phosphate buffer alone as (ZPE) were added to the plates to calculate percent effect once the assay was terminated with 10 μL CELLTITER-GLO® assay reagents for a luminescent readout.

Substance	MIC MSSP 49051 [1]	MIC MSSP 71990 [1]	MIC MSSP 72036 [1]	MIC MSSP 72191 [1]	MIC MSSP 76986 [1]	MIC MSSP 77378 [1]	MIC MSSP 78032 [1]	MIC MSSP 81923 [1]	MIC MSSP 84250 [1]	MIC MSSP 84658 [1]	MIC MSSP 86000 [1]	MIC MSSP 86001 [1]	MIC MRSP 71994 [2]	MIC MRSP 72035 [2]	MIC MRSP 72192 [2]	MIC MRSP 76923 [2]	MIC MRSP 79882 [2]	MIC MRSP 80729 [2]	MIC MRSP 81926 [2]	MIC MRSP 86002 [2]	other results
3 (GWCFRVCYRGICYRRCRD; Artificial Antimicrobial peptide) [compound 3]	1.6	1.6	1.6	1.6	1.6	0.4	1.6	1.6	1.6	1.6	1.6	0.8	1.6	1.6	1.6	1.6	0.8	1.6	1.6	1.6	MIC MRSP 87655 [2]: 1.6; MIC MRSP 88493 [2]: 1.6; cRBC (50 μM) (cRBC): 67.1; CPEK (50 μM) [3]: 42.1
96 (KWCFRVCYGRICYRRCRD; Artificial Antimicrobial peptide) [compound 96]	1.6	1.6	1.6	1.6	1.6	0.8	1.6	1.6	1.6	1.6	1.6	1.6	1.6	1.6	1.6	1.6	1.6	1.6	1.6	1.6	MIC MRSP 87655 [2]: 1.6; MIC MRSP 88493 [2]: 1.6; cRBC (50 μM) (cRBC): 101.4; CPEK (50 μM) [3]: 51.9
10 (KWCFRVCYRGICYHRCRD; Artificial Antimicrobial peptide) [compound 10]	1.6	1.6	1.6	1.6	1.6	0.8	1.6	1.6	1.6	1.6	1.6	1.6	1.6	1.6	1.6	1.6	0.8	1.6	1.6	1.6	MIC MRSP 87655 [2]: 1.6; MIC MRSP 88493 [2]: 1.6; cRBC (50 μM) (cRBC): 101.1; CPEK (50 μM) [3]: 31.5
1 (KWCFRVCYRGICYRRCRD; Antimicrobial peptide) [compound 1]	1.6	1.6	1.6	1.6	1.6	1.6	1.6	1.6	1.6	1.6	1.6	1.6	1.6	1.6	1.6	1.6	1.6	1.6	1.6	1.6	MIC MRSP 87655 [2]: 1.6; MIC MRSP 88493 [2]: 1.6; cRBC (50 μM) (cRBC): 20.5; CPEK (50 μM) [3]: 21.5
6 (KWCFRVCRRGICYRRCRD; Artificial Antimicrobial peptide) [compound 6]	3.1	3.1	3.1	3.1	3.1	1.6	3.1	3.1	3.1	3.1	3.1	3.1	3.1	3.1	3.1	3.1	3.1	3.1	3.1	3.1	MIC MRSP 87655 [2]: 3.1; MIC MRSP 88493 [2]: 3.1; cRBC (50 μM) (cRBC): 1.1; CPEK (50 μM) [3]: 4.1

Source: patent US11352396B2, “Antimicrobial peptides and methods of using same” (Zoetis Services LLC, priority 2017, dated 2022)
